Publication PMC4300089, “Structure-Guided Design of Selective Epac1 and Epac2 Agonists” (PLoS Biology, 2015)

How the values were obtained:
PKA-Iα = molecular target: T1, PKA-Iα (Homo sapiens, UniProt P10644); assay: PKA activity assay (coupled spectrophotometric, Kemptide), PKA-Iα; type: biochemical; conditions: for EC50: read-out: Kact; for A (PKA activity): PKAIα
T1 construct: made in house
Description: (§1) The recombinant human PKA catalytic subunit (Cα1) and the four human PKA regulatory subunits (RIα, RIβ, RIIα, RIIβ) were expressed, purified, and characterized as described. […] PKA holoenzymes were formed by mixing the R- and C-subunit at a molar ratio of 1.2:1 and extensive dialysis against 20 mM MOPS (pH 7.0), 150 mM NaCl, 2.5 mM β-mercaptoethanol, supplemented with 1 mM ATP and 10 mM MgCl2 for PKA-I at 4°C overnight. PKA holoenzymes were used at about 20 nM for the activation assay. The apparent activation constants (Kact) were determined by fitting the concentration-dependent activity to a sigmoid dose-response model.

PKA-IIα = molecular target: T2, PKA-IIα (Homo sapiens, UniProt P13861); assay: PKA activity assay, PKA-IIα; type: biochemical; conditions: for EC50: read-out: Kact; for A (PKA activity): PKAIIα
T2 construct: made in house
T2 sequence (P13861 whole entry): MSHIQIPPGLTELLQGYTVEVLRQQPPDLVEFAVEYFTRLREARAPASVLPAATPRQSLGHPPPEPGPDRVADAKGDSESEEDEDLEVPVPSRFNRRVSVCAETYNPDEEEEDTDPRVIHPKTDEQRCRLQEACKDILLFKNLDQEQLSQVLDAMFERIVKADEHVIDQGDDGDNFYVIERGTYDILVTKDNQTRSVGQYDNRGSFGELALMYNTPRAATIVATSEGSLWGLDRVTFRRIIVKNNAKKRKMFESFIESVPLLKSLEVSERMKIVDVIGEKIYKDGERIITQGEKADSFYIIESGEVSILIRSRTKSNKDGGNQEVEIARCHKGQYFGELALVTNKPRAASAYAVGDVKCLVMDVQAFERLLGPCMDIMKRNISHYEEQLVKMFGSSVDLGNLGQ
Description: as §1

PKA-IIβ = molecular target: T3, PKA-IIβ (Homo sapiens, UniProt P31323); assay: PKA activity assay, PKA-IIβ; type: biochemical; conditions: for EC50: read-out: Kact; for A (PKA activity): PKAIIβ
T3 construct: made in house
T3 sequence (P31323 whole entry): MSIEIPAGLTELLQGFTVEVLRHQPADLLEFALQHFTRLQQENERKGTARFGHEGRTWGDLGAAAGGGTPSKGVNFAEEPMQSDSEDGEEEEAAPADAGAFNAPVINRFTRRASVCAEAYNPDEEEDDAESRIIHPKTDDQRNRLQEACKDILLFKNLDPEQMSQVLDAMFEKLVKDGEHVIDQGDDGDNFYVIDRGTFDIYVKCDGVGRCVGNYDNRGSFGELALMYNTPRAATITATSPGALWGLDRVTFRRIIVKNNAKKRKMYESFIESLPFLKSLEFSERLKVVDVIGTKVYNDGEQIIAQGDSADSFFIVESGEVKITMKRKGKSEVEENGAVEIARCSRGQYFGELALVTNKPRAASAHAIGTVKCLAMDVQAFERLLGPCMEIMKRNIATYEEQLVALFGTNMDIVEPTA
Description: as §1

Epac2 = molecular target: T4, Epac2 (Mus musculus, UniProt Q9EQZ6); assay: Cellular Epac activity: Rap•GTP levels in U2OS cells stably expressing Epac2; type: cell-based, homo sapiens; conditions: for rel. RapGTP: relative to induction with forskolin and IBMX, Fig. 6C
T4 construct: pBabe-Flag-Epac2 (Epac2, mus musculus, amino acids 1–993); expressed in transfected cells; host or cells: U2OS
T4 sequence (Q9EQZ6 1-993 isoform Q9EQZ6-3): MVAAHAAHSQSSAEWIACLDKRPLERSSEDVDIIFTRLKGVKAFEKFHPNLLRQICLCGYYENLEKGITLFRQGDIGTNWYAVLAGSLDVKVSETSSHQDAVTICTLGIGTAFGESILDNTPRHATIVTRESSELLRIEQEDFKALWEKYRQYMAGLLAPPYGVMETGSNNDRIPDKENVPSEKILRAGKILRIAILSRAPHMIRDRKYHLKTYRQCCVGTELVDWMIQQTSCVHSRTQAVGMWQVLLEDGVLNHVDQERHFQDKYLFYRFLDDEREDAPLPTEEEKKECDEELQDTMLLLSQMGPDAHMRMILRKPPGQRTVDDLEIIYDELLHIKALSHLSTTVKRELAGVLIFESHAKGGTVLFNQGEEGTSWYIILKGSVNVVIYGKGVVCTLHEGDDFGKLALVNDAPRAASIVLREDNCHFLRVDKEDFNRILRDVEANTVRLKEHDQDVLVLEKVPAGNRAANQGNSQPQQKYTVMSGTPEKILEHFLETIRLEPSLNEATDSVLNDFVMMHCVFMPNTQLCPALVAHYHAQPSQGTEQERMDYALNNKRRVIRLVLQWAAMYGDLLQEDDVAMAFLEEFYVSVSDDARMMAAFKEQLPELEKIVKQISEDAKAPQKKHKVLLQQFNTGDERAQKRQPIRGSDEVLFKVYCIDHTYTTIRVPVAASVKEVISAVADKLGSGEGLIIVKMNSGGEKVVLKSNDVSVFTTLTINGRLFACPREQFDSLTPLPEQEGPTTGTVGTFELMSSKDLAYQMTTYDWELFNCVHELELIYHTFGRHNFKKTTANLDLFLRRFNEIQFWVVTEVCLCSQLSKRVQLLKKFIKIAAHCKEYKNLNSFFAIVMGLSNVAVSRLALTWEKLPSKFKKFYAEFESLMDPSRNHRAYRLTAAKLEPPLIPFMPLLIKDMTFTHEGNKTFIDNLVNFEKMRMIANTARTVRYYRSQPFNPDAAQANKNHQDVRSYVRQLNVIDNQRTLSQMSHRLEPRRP
Description: (§2) Rap•GTP levels were determined by precipitating GTP-bound Rap specifically from cell lysates and subsequent western Blotting with an α-Rap antibody (Santa Cruz Biotechnology). To generate stable cell lines, U2OS cells were transfected with pBabe-Flag-Epac1 (Epac1, homo sapiens, amino acids 1–881) or pBabe-Flag-Epac2 (Epac2, mus musculus, amino acids 1–993), selected for Epac expression and maintained under selection with 2 mg/l puromycin. The cells were cultured according to standard protocols. The activity of PKA was determined by western blotting with a monoclonal α-VASP antibody (BD Transduction Laboratories). Blots were developed by enhanced chemiluminescence (ECL) and the use of X-ray films; for quantification films were scanned. The intensities of the Rap•GTP bands and the upper band of VASP (P-VASP) were determined for each condition in ImageJ and normalized to the stimulation with forskolin and IBMX for each blot.

PKA = assay: Cellular PKA activity: P-VASP band shift in U2OS Epac1 and Epac2 cell lines; type: cell-based; conditions: for rel. P-VASP: PKA, average of Epac1 and Epac2 cell lines, relative to induction with forskolin and IBMX, Fig. 6C; for activation of PKA in cells: U2OS cell lines
Description: as §2

T1 sequence (P10644 whole entry): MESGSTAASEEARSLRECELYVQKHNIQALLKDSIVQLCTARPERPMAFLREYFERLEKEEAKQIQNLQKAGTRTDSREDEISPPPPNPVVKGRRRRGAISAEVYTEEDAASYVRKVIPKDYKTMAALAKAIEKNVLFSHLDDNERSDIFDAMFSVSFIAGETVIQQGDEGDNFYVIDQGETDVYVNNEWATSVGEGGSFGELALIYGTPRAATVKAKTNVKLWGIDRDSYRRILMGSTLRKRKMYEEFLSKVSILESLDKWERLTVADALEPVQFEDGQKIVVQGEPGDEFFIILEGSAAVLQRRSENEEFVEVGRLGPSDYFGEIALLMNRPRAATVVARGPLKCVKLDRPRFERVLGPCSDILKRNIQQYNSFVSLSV

Row | Structure (SMILES) | EC50 (PKA-Iα; PKA-Iα) [nM] | A (PKA activity) (PKA-Iα; concentration 1 μM) [U/mg] | A (PKA activity) (PKA-Iα; concentration 1.00E+01 μM) [U/mg] | A (PKA activity) (PKA-Iα; concentration 1.00E-01 μM) [U/mg] | A (PKA activity) (PKA-Iα; concentration 1.00E-03 μM) [U/mg] | A (PKA activity) (PKA-Iα; concentration 1.00E-05 μM) [U/mg] | A (PKA activity) (PKA-Iα; concentration 2.50E+02 μM) [U/mg] | EC50 (PKA-IIα; PKA-IIα) [nM] | A (PKA activity) (PKA-IIα; concentration 1 μM) [U/mg] | A (PKA activity) (PKA-IIα; concentration 1.00E+01 μM) [U/mg] | A (PKA activity) (PKA-IIα; concentration 1.00E-01 μM) [U/mg] | A (PKA activity) (PKA-IIα; concentration 1.00E-02 μM) [U/mg] | A (PKA activity) (PKA-IIα; concentration 1.00E-03 μM) [U/mg] | A (PKA activity) (PKA-IIα; concentration 1.00E-04 μM) [U/mg] | A (PKA activity) (PKA-IIα; concentration 1.00E-05 μM) [U/mg] | A (PKA activity) (PKA-IIα; concentration 2.50E+02 μM) [U/mg] | EC50 (PKA-IIβ; PKA-IIβ) [nM] | A (PKA activity) (PKA-IIβ; concentration 1 μM) [U/mg] | rel. RapGTP (Epac2) | rel. P-VASP (PKA) | also measured
1 | COC1C2OP(=O)(O)OCC2OC1n1c(Sc2ccc(Cl)cc2)nc2c(N)ncnc21 [D-007, 8-pCPT-2′-O-Me-cAMP, reference compound] | 14000 | 3.924 | 1.06E+01 | 3.7714 | 3.6515 | 2.6923 | 1.83E+01 | > 70000 | 7.998 | 1.14E+01 | 4.917 | 4.453 | 5.045 | 4.937 | 3.782 | 1.57E+01 | 50000 | 6.99 | 0.3431 | 0.1351 | A (PKA activity) (PKA-Iα; concentration 1.00E+02 μM): 1.58E+01 U/mg; A (PKA activity) (PKA-Iα; concentration 2.50E+01 μM): 1.22E+01 U/mg; A (PKA activity) (PKA-Iα; concentration 5.00E+02 μM): 1.79E+01 U/mg; A (PKA activity) (PKA-Iα; concentration […]): 7.9352 U/mg; A (PKA activity) (PKA-IIα; concentration 1.00E+03 μM): 1.97E+01 U/mg; A (PKA activity) (PKA-IIα; concentration 5.00E+01 μM): 1.39E+01 U/mg; A (PKA activity) (PKA-IIα; concentration 5.00E+02 μM): 1.77E+01 U/mg; A (PKA activity) (PKA-IIα; concentration […]): 9.518 U/mg; A (PKA activity) (PKA-IIβ; concentration 1.00E+01 μM): 1.06E+01 U/mg; A (PKA activity) (PKA-IIβ; concentration 1.00E-01 μM): 6.554 U/mg; A (PKA activity) (PKA-IIβ; concentration 1.00E-05 μM): 2.8563 U/mg; A (PKA activity) (PKA-IIβ; concentration 2.50E+02 μM): 1.60E+01 U/mg; A (PKA activity) (PKA-IIβ; concentration 5.00E+01 μM): 1.46E+01 U/mg; A (PKA activity) (PKA-IIβ; concentration 5.00E+02 μM): 1.87E+01 U/mg; activation of Epac2 in cells (Epac2): only minor effects; activation of PKA in cells (PKA): only minor effects
2 | Nc1ncnc2c1nc(Sc1ccc(Cl)cc1)n2[C@@H]1O[C@@H]2COP(=O)(O)O[C@H]2[C@H]1O [L-026, 8-pCPT-cAMP] | – | – | – | – | – | – | – | – | – | – | – | – | – | – | – | – | – | – | 0.7828 | 0.9052 | –
3 | Nc1ncnc2c1nc(SCc1ccccc1)n2[C@@H]1O[C@@H]2CO[P@](O)(=S)O[C@H]2[C@H]1O [S-220, Sp-8-BnT-cAMPS] | 290 | 1.97E+01 | 2.59E+01 | 9.4227 | 3.7632 | 3.6309 | 2.40E+01 | 270 | 1.74E+01 | 2.30E+01 | 1.09E+01 | 5.815 | 5.193 | 4.739 | 3.782 | 2.28E+01 | 210 | 1.92E+01 | 1.2025 | 0.1961 | Kact compared to cAMP (times higher) (PKA-Iα; PKA-Iα): three to eight times higher; A (PKA activity) (PKA-Iα; concentration 1.00E-02 μM): 3.6309 U/mg; A (PKA activity) (PKA-Iα; concentration 2.50E-01 μM): 1.33E+01 U/mg; A (PKA activity) (PKA-Iα; concentration 5.00E+01 μM): 2.52E+01 U/mg; Kact compared to cAMP (times higher / affinity reduced) (PKA-IIα; PKA-IIα): three to eight times higher; A (PKA activity) (PKA-IIα; concentration 2.50E-01 μM): 1.40E+01 U/mg; A (PKA activity) (PKA-IIα; concentration 2.50E-02 μM): 8.017 U/mg; Kact compared to cAMP (times higher / affinity reduced) (PKA-IIβ; PKA-IIβ): comparable affinities; A (PKA activity) (PKA-IIβ; concentration 1.00E+01 μM): 2.49E+01 U/mg; A (PKA activity) (PKA-IIβ; concentration 1.00E-01 μM): 1.08E+01 U/mg; A (PKA activity) (PKA-IIβ; concentration 1.00E-02 μM): 5.378 U/mg; A (PKA activity) (PKA-IIβ; concentration 1.00E-03 μM): 4.482 U/mg; A (PKA activity) (PKA-IIβ; concentration 1.00E-04 μM): 4.9341 U/mg; A (PKA activity) (PKA-IIβ; concentration 1.00E-05 μM): 2.8563 U/mg; A (PKA activity) (PKA-IIβ; concentration 2.50E+02 μM): 2.44E+01 U/mg; A (PKA activity) (PKA-IIβ; concentration 2.50E-01 μM): 1.60E+01 U/mg; activation of Epac2 in cells (Epac2): efficiently activated; activation of PKA in cells (PKA): very low
